The conditions of series [1]: mouse, in vivo. Here is the method:
One group was injected intravenously with 20 μCi (250-μg protein) of ^111In-sacituzumab govitecan, whereas another group received 20 μCi (250-μg protein) of ^111In-hRS7 IgG. At various timepoints mice (5 per timepoint) were anesthetized, bled via intracardiac puncture, and then euthanized. Tumors and various tissues were removed, weighed, and counted by γ scintillation to determine the percentage injected dose per gram tissue (% ID/g). […] Pharmacokinetic analysis on blood clearance was performed using WinNonLin software (Parsight Corp.).

Series [2] is described as follows: Tolerability in Swiss-Webster mice. Type of series: in vivo, mouse.
Series [3] is described as follows: Tolerability in Cynomolgus monkeys. In kind it is in vivo, Macaca fascicularis.
Experimental: Tolerability studies were performed in Cynomolgus monkeys (Macaca fascicularis; 2.5-4 kg male and female) by SNBL USA, Ltd. Animals were implanted subcutaneously with different human cancer cell lines.
Dosages, times, and number of monkeys bled for evaluation of possible hematologic toxicities and serum chemistries are described in the Results.
Series [4] deals with Trop-2+ human gastric carcinoma xenografts (NCI-N87). As to the kind of experiment: Effect of DAR on efficacy, NCI-N87 xenograft. Type of series: in vivo, mouse. To be noted: for median survival time (MST): 2 treatments 7 days apart, 0.5 mg. From the text:
Effect of DAR on pharmacokinetics and anti-tumor efficacy in mice.

The next series deals with HCC1806 (Trop-2+). Nature of the series: dsDNA breaks, phospho-H2AX flow cytometry, HCC1806. In kind it is cell-based, human. To be noted: untreated baseline 168.
In the next series the test system is MDA-MB-468 TNBC tumors. As to the kind of experiment: MDA-MB-468 TNBC xenograft. In kind it is in vivo, mouse.
In series [5] the test system is metastatic non-small cell lung cancer (NSCLC). Nature of the series: Phase I/II, metastatic NSCLC cohort. In kind it is in vivo, human.
Experimental: The best responses by RESIST 1.1 criteria were determined (not shown).
The test system of series [6] is triple-negative breast cancer.
For series [7] the following is noted: Cardillo et al., 2011; cited from earlier work.
The subject of the next series is Calu-3. As to the kind of experiment: In vitro cytotoxicity, Calu-3.
For another series, the system named is BxPC-3. Nature of the series: In vitro cytotoxicity, BxPC-3.
In another series the test system is gastric cancer. Nature of the series: Case, stage IV metastatic gastric cancer.
For another series, the target named is T1, Trop-2 (Homo sapiens, UniProt P09758).
T1 sequence (P09758 27-323): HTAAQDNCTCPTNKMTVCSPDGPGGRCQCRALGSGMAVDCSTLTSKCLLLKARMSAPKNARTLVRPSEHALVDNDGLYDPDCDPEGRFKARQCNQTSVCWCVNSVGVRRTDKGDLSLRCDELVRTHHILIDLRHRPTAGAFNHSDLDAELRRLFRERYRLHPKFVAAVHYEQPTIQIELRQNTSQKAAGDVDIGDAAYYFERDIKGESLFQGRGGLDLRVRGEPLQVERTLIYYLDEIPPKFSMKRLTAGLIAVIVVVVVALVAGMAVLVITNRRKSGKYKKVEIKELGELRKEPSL
As to the kind of experiment: Trop-2 ELISA, human. Type of series: binding. More on the design: purchased Sino Biological, Inc. 10428-H09H. Here is the method:
Trop-2 ELISA—Recombinant human Trop-2 with a His-tag (Sino Biological, Inc., Bejing, China; Cat #10428-H09H) and recombinant mouse Trop-2 with a His-Tag (Sino Biological, Inc., Cat #50922-M08H) were plated onto Ni-NTA Hissorb strips (Qiagen GmbH Cat #35023) at 1 μg for 1 h at room temperature. The plate was washed four times with PBS-Tween (0.05%) wash buffer. Serial dilutions of hRS7 were made in 1% BSA-PBS dilution buffer to a test range of 0.1 ng/mL to 10 μg/mL. The plates were then incubated for 2 h at room temperature before being washed four times followed by the addition of a peroxidase conjugated secondary antibody (goat anti-human, Fc fragment specific; Jackson Immunoresearch Cat #109-036-098). After a 45-min incubation, the plate was washed and a substrate solution (o-phenylenediamine dihydrochloride (OPD); Sigma, Cat #P828) added to all the wells. Plates were incubated in the dark for 15 min before the reaction was stopped with 4N sulfuric acid. The plates were read at 450 nm on Biotek ELX808 plate reader. Data were analyzed and graphed using Prism GraphPad Software (v4.03) (Advanced Graphics Software, Inc.; Encinitas, CA).

Some results are limits rather than exact numbers.

Text for BxPC-3: (§1) Cell lines, antibodies, and chemotherapeutics—All human cancer cell lines used in this study were purchased from the American Type Culture Collection.
Text for Calu-3: as §1
Experimental for HCC1806 (Trop-2+): In vitro specificity testing by flow cytometry with rH2AX-stained cells—For drug activity testing, HCC1806 and HCC1395 TNBC cell lines cells were seeded in 6-well plates at 5×10^5 cells/well and held at 37° C. overnight. […] The signal intensity of rH2AX was measured by flow cytometry using a BD FACSCalibur (BD Biosciences, San Jose, CA).
The cells were then washed to remove unbound conjugate, and then incubated overnight at 37° C.

Regarding IMMU-132, in [1], the “amount in tumor vs hRS7 IgG” value is listed as “similar”. For the same substance, the hematopoietic toxicity result in [2] (2 doses of 4, 8, 12 mg SN-38/kg) was “No hematopoietic toxicity occurred”. In series [2] (2 doses over 3 days, each of 4, 8, and 12 mg SN-38/kg), the “tolerability, weight loss” value is listed as “minimal transient weight loss”. Further, in [2] (mouse, in vivo), the “aspartate transaminase (AST)” value is on record as above 298 U/L, the liver histology entry is “did not show histologic evidence of tissue damage” and the “mice with slightly elevated glucose” value is listed as 5 of 7. Moreover, the “MTD, cumulative dose over 1 week” value in series [2] (normal mice, no acute toxicity) is reported as above 24 mg/kg SN-38. Also, in series [3] (2x0.96 mg SN-38/kg), the serum chemistries entry is listed as “No abnormal values” and the weight loss is at most 7.3%. The “histopathology, microscopic changes” value in [3] (2x0.96 mg SN-38/kg, day 11) was “minimal to moderate”. Further, the blood counts result in series [3] (2x0.96 mg/kg, transient decreases, listed as sacituzumab govitecan) is reported as “the values did not fall below normal ranges”. The same substance gave a deaths in series [3] (2x1.92 mg SN-38/kg, gastrointestinal complications and bone marrow suppression) of 1. In series [3] (cynomolgus monkey, in vivo), the extrapolated human dose is reported as around 0.3 mg/kg/dose. Moreover, the “median survival time (MST)” value in series [4] (DAR 1.64) is on record as 21 days. The “median survival time (MST)” value in series [4] (DAR 3.28 (printed 3.38)) stood at 25 days. For the same substance, the “tumor growth inhibition (AUC)” value in series [4] (DAR 6.89, 0.5 mg twice weekly for two weeks vs DAR 3.28, 1 mg) was “inhibited tumor growth significantly more than tumor-bearing animals treated with the 3.28 DAR conjugate”. Further, the “median survival time (MST)” value in series [4] (DAR 6.89) is given as 39 days. In addition, the “Median fluorescence intensity, anti-rH2AX-AF488” value in the series on HCC1806 (Trop-2+) is 546. Moreover, in the series with MDA-MB-468 TNBC tumors (0.12 or 0.20 mg/kg SN-38-equivalents, vs saline, irinotecan, hA20-CL2A-SN-38), the tumor response entry was “induced significant tumor regression”. Besides, in the series on MDA-MB-468 TNBC tumors (mice progressed on hA20-CL2A-SN-38 (0.74±0.41 cm^3), then 0.2 mg/kg), the “total volume [TV] five weeks after re-treatment” value is 0.14±0.14 cm^3. Moreover, in the series on MDA-MB-468 TNBC tumors (one animal each, tumors progressed to ~0.7 cm^3 on irinotecan), the “decrease in tumor size after re-treatment” value is listed as 60%. The “median PFS” value in [5] (8 mg/kg) came to 3.4 months. Besides, in [5] (10 mg/kg), the “median PFS” value was found to be 3.8 months. Further, in series [5] (21/33), the “patients with PR or SD” value is 64%. Besides, the “PR, patients” value in [5] (29 assessable patients, 8 or 10 mg/kg) is reported as 8. Moreover, the “median time to progression” value in series [5] (in vivo) is 9/4. For the same substance, the “patients with long-term stable disease” value in the series on metastatic PDC (8/13 PDC patients) worked out at 62%. Moreover, the “median TTP, CT assessable patients” value in the series with metastatic PDC (8.0 weeks estimated from last prior therapy) is listed as 12.7 wks. The “stable disease, number of patients” value in the series with metastatic PDC (13 assessable patients) was 8. The response result with metastatic PDC (case) was “stable disease by CT RECIST criteria”. The substance further registered a CA19-9 after treatment in the series on metastatic PDC (case, from 15885 U/mL) of 4418 U/mL. In addition, in the series on metastatic PDC (in vivo), the “Alopecia (Grades 1-2), patients” value was 5 of 9; the “Grade 3-4 nausea or vomiting” value was “no patient”; the “Phase 2 dose” value lay in the range of 8 to 10 mg/kg; the “median TTP, all 14 patients” value was 11.9 wks. Moreover, in the series on metastatic PDC (in vivo), the “neutropenia ≥G3” value was found to be 33%; the “patients with Grade 3 diarrhea” value was “Two”; the “progressive disease by RECIST, patients” value is “Five”. For the same substance, in the series with metastatic PDC (person, 8 mg/kg days 1 and 8 of 21 day cycle), the “maximum decline in CA19-9” value was found to be 72%. In series [6] (after 3 therapy cycles, 12 mg/kg then 9 mg/kg), the “decrease in sum of long diameter of target lesions” value is 43%. In addition, the response result in series [6] (first response assessment) is listed as “partial response by RECIST criteria”. Further, the “very well tolerated human equivalent dose” value in series [7] is listed as around 40 mg/kg. The IC50 in the series with Calu-3 is 9.97 nM. Also, the IC50 with BxPC-3 came to 4.03 nM. In addition, the tolerability result in the series on gastric cancer (10 mg/kg) was “some mild nausea and diarrhea”. Moreover, the “disease reduction from baseline by RECIST” value in the series on gastric cancer (after another 5 courses) is “about 35%”.
hRS7 IgG showed a Kd with Trop-2 of 0.3 nM.

Broadly, the IC50 is the concentration at which inhibition is half-maximal. A low value points to greater potency. The term Kd denotes a measure of binding affinity in units of concentration. Read a high Kd as a looser complex.

The record behind these values is US20240352145A1, “EFFICACY OF ANTI-TROP-2-SN-38 ANTIBODY DRUG CONJUGATES FOR THERAPY OF TUMORS RELAPSED/REFRACTORY TO CHECKPOINT INHIBITORS” (Immunomedics, Inc., priority 2016, published 2024).
